Our source for the IC50 values is ChEMBL document CHEMBL2046319, “Synthesis and cytotoxicity of lupane-type triterpenoid glyceryl esters” (Bioorg Med Chem Lett, 2012).

One test relates to A549. Kind of test: Cytotoxicity against human A549 cells by Alamar Blue dye assay. It is filed as functional, cell-based.
Test [1] can be described thus: Cytotoxicity against human WS1 cells by Alamar Blue dye assay. It is filed as cell-based.
For another test, the system named is DLD-1. Description: Cytotoxicity against human DLD1 cells by Alamar Blue dye assay. The test is classed as functional, cell-based.

Turning to `C=C(C)[C@@H]1CC[C@]2(COC(=O)[C@H]3COC(C)(C)O3)CC[C@]3(C)[C@H](CC[C@@H]4[C@@]5(C)CC[C@H](OC(C)=O)C(C)(C)[C@@H]5CC[C@]43C)[C@@H]12`, the IC50 (in the test with A549; in test [1]; in the test on DLD-1) was over 100 µM in each case.

Turning to `C=C(C)[C@@H]1CC[C@]2(COC(=O)[C@H](O)CO)CC[C@]3(C)[C@H](CC[C@@H]4[C@@]5(C)CC[C@H](OC(C)=O)C(C)(C)[C@@H]5CC[C@]43C)[C@@H]12`, the figures for the IC50 (in the test with A549; in test [1]; in the test on DLD-1) were 16.3 µM, 16 µM and 16 µM, respectively.

For the molecule `C=C(C)[C@@H]1CC[C@]2(COC(C)=O)CC[C@]3(C)[C@H](CC[C@@H]4[C@@]5(C)CC[C@H](OC(=O)[C@H]6COC(C)(C)O6)C(C)(C)[C@@H]5CC[C@]43C)[C@@H]12`, the IC50 (with A549; in test [1]; in the test on DLD-1) was over 100 µM each time.

As to `C=C(C)[C@@H]1CC[C@]2(C(=O)OC[C@H]3COC(C)(C)O3)CC[C@]3(C)[C@H](CC[C@@H]4[C@@]5(C)CC[C@H](OC(C)=O)C(C)(C)[C@@H]5CC[C@]43C)[C@@H]12`, the IC50 (in the test with A549; in test [1]; in the test with DLD-1) was over 100 µM throughout.

On to `C=C(C)[C@@H]1CC[C@]2(COC(=O)[C@H](O)CO)CC[C@]3(C)[C@H](CC[C@@H]4[C@@]5(C)CC[C@H](OC(=O)[C@H](O)CO)C(C)(C)[C@@H]5CC[C@]43C)[C@@H]12`, for which the IC50 in the test with A549 is 31 µM; in test [1] it was 40 µM; in the test with DLD-1, 39 µM.

For `C=C(C)[C@@H]1CC[C@]2(C(=O)OC[C@H](O)CO)CC[C@]3(C)[C@H](CC[C@@H]4[C@@]5(C)CC[C@H](OC(C)=O)C(C)(C)[C@@H]5CC[C@]43C)[C@@H]12`, the IC50 in the test on A549 is 16.5 µM; in test [1], 15 µM; with DLD-1, 18 µM.

Take `C=C(C)[C@@H]1CC[C@]2(COC(=O)[C@H]3COC(C)(C)O3)CC[C@]3(C)[C@H](CC[C@@H]4[C@@]5(C)CC[C@H](OC(=O)[C@H]6COC(C)(C)O6)C(C)(C)[C@@H]5CC[C@]43C)[C@@H]12`: the IC50 (in the test on A549; in test [1]; with DLD-1) was over 100 µM each time.

Turning to `C=C(C)[C@@H]1CC[C@]2(COC(C)=O)CC[C@]3(C)[C@H](CC[C@@H]4[C@@]5(C)CC[C@H](OC(=O)[C@H](O)CO)C(C)(C)[C@@H]5CC[C@]43C)[C@@H]12`, the IC50 with A549 was found to be 15.5 µM; in test [1], 15 µM; with DLD-1, 16 µM.

Take `C=C(C)[C@@H]1CC[C@]2(C(=O)OC[C@H](O)CO)CC[C@]3(C)[C@H](CC[C@@H]4[C@@]5(C)CC[C@H](O)C(C)(C)[C@@H]5CC[C@]43C)[C@@H]12`: the IC50 in the test on A549 was determined as 16 µM; in test [1], 13.7 µM; in the test with DLD-1, 23 µM.

Turning to `C=C(C)[C@@H]1CC[C@]2(C(=O)OC[C@H]3COC(C)(C)O3)CC[C@]3(C)[C@H](CC[C@@H]4[C@@]5(C)CC[C@H](O)C(C)(C)[C@@H]5CC[C@]43C)[C@@H]12`, the figures for the IC50 (in the test on A549; in test [1]; in the test with DLD-1) were 30 µM, 43 µM and 96 µM, respectively.
